{"source": "ChEMBL document CHEMBL5518180", "about": "“Design, synthesis, and biological evaluation of harmine derivatives as topoisomerase I inhibitors for cancer treatment” (Eur J Med Chem, 2024)", "key": {"MDA-MB-231": {"system": "MDA-MB-231", "assay": "Antiproliferative activity against human MDA-MB-231 cells assessed as inhibition of cell growth incubated for 48 hrs by MTT assay", "format": "functional, cell-based", "details": "MDA-MB-231, 48 h"}, "HepG2": {"system": "HepG2", "assay": "Antiproliferative activity against human HepG2 cells assessed as inhibition of cell growth incubated for 48 hrs by MTT assay", "format": "functional, cell-based", "details": "HepG2, 48 h"}, "PC-3": {"system": "PC-3", "assay": "Antiproliferative activity against human PC-3 cells assessed as inhibition of cell growth incubated for 48 hrs by MTT assay", "format": "functional, cell-based", "details": "PC-3, 48 h"}, "MCF7 [1]": {"system": "MCF7", "assay": "Inhibition of colony formation in human MCF7 cells at 0.075 uM incubated for 2 weeks by crystal violet staining based analysis", "format": "functional, cell-based"}, "MCF7 [2]": {"system": "MCF7", "assay": "Antimigratory activity against human MCF7 cells assessed as reduction in penetration of cells in transwell membrane at 0.125 to 0.5 uM incubated for 24 hrs by crystal violet staining based inverted fluorescence microscopic analysis", "format": "functional, cell-based", "details": "dose 0.125-0.5 µM"}, "MCF7 [3]": {"system": "MCF7", "assay": "Antimigratory activity against human MCF7 cells assessed as decrease in MMP-2 expression incubated for 24 hrs by Western blotting analysis", "format": "functional, cell-based", "details": "dose 125-500 nM"}, "MCF7 [4]": {"system": "MCF7", "assay": "Induction of apoptosis in human MCF7 cells assessed as viable cells at 0.1 uM incubated for 24 hrs by Annexin V-FITC/Propidium Iodide staining based flow cytometry analysis (reference value: 91.8 %)", "format": "functional", "details": "read-out: Activity"}, "MCF7 [5]": {"system": "MCF7", "assay": "Induction of apoptosis in human MCF7 cells assessed as early apoptotic cells at 0.1 uM incubated for 24 hrs by Annexin V-FITC/Propidium Iodide staining based flow cytometry analysis (reference value: 2.54 %)", "format": "functional"}, "MCF7 [6]": {"system": "MCF7", "assay": "Induction of apoptosis in human MCF7 cells assessed as late apoptotic cells at 0.5 uM incubated for 24 hrs by Annexin V-FITC/Propidium Iodide staining based flow cytometry analysis (reference value: 5.58 %)", "format": "functional"}, "MCF7 [7]": {"system": "MCF7", "assay": "Induction of apoptosis in human MCF7 cells assessed as decrease in Bcl-2 protein level incubated for 24 hrs by Western blotting analysis", "format": "functional, cell-based", "details": "dose 0.1-2 µM"}, "MCF7 [8]": {"system": "MCF7", "assay": "Induction of apoptosis in human MCF7 cells assessed as increase in Bax protein expression incubated for 24 hrs by Western blotting analysis", "format": "functional, cell-based", "details": "dose 0.1-2 µM"}, "MCF7 [9]": {"system": "MCF7", "assay": "Induction of apoptosis in human MCF7 cells assessed as increase in phosphorylated Bim protein expression incubated for 24 hrs by Western blotting analysis", "format": "functional, cell-based", "details": "dose 0.1-2 µM"}, "[10]": {"biological_target": "T1, DNA topoisomerase 1 (Homo sapiens) (UniProt P11387)", "T1 sequence (whole entry)": "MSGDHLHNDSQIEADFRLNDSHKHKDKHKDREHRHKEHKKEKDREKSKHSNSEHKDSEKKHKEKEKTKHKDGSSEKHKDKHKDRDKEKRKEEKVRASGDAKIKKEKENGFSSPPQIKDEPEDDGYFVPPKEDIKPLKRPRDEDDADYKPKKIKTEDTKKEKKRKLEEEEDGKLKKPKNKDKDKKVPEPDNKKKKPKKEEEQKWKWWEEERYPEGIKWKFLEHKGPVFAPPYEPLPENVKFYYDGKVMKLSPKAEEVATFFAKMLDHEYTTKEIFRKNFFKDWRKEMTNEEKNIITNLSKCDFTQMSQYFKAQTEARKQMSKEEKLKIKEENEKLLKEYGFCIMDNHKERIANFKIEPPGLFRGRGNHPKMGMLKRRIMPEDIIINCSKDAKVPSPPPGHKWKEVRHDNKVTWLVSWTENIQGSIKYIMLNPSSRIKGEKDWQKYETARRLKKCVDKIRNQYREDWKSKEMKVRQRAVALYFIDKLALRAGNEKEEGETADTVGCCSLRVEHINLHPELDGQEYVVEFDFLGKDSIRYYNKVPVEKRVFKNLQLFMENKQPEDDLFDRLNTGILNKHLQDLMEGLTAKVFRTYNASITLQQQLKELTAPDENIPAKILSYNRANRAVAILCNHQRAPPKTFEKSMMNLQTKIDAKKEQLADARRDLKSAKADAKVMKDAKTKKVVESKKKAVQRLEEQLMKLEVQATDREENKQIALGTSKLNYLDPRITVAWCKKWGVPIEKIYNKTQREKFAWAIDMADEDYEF", "assay": "Inhibition of Topoisomerase I (unknown origin) assessed as inhibition of relaxation of supercoiled DNA incubated for 90 mins in presence of pBR322 by electrophoretic analysis", "details": "dose 25-100 µM"}, "MCF7 [11]": {"system": "MCF7", "assay": "Induction of DNA double-strand breaks in human MCF7 cells assessed as increase in gamma-H2AX incubated for 48 hrs by DAPI staining based confocal laser scanning microscopy", "format": "functional, cell-based", "details": "dose 0.25-1 µM"}, "MCF7 [12]": {"system": "MCF7", "assay": "Induction of DNA double-strand breaks in human MCF7 cells assessed as increase in gamma-H2AX protein expression incubated for 48 hrs by Western blotting analysis", "format": "functional, cell-based", "details": "dose 0.25-1 µM"}, "MCF7 [13]": {"system": "MCF7", "assay": "Induction of DNA damage in human MCF7 cells at 1 uM pre-incubated for 24 hrs by Comet assay", "format": "functional, cell-based"}, "4T1 [14]": {"system": "4T1", "assay": "Antitumor activity against mouse 4T1 cells transplanted in BALB/c mouse assessed as tumor growth inhibition administered for 14 days", "format": "functional", "details": "dose 5-20 mg/kg, route ip, time 14.0 day"}, "4T1 [15]": {"system": "4T1", "assay": "Antitumor activity against mouse 4T1 cells transplanted in BALB/c mouse assessed as inhibition of tumor volume at 10 mg/kg, ip administered for 14 days", "format": "functional, organism-based", "details": "time 14.0 day"}, "4T1 [16]": {"system": "4T1", "assay": "Antitumor activity against mouse 4T1 cells transplanted in BALB/c mouse assessed as tumor growth inhibition rate at 10 mg/kg, ip administered for 14 days relative to control", "format": "functional", "set-up": "scale not given: the % may be the effect or the level left", "details": "time 14 day"}, "[17]": {"assay": "Toxicity in BALB/c mouse transplanted with […] cells assessed as change in body weight at 5 to 20 mg/kg, ip administered for 14 days", "format": "organism-based", "details": "in vivo, 336 h, dose 5-20 mg/kg, time 14 day"}, "[18]": {"assay": "Toxicity in BALB/c mouse transplanted with […] cells assessed as liver damage at 5 to 20 mg/kg, ip administered for 14 days by hematoxylin and eosin staining based analysis", "format": "organism-based", "details": "in vivo, 336 h, dose 5-20 mg/kg, time 14 day"}, "[19]": {"assay": "Toxicity in BALB/c mouse transplanted with […] cells assessed as spleen damage at 5 to 20 mg/kg, ip administered for 14 days by hematoxylin and eosin staining based analysis", "format": "organism-based", "details": "in vivo, 336 h, dose 5-20 mg/kg, time 14 day"}, "[20]": {"assay": "Toxicity in BALB/c mouse transplanted with […] cells assessed as change in serum alanine aminotransferase level at 5 to 20 mg/kg, ip administered for 14 days by biochemical analysis", "format": "organism-based", "details": "in vivo, 336 h, dose 5-20 mg/kg, time 14 day"}, "[21]": {"assay": "Toxicity in BALB/c mouse transplanted with […] cells assessed as change in serum aspartate aminotransferase level at 5 to 20 mg/kg, ip administered for 14 days by biochemical analysis", "format": "organism-based", "details": "in vivo, 336 h, dose 5-20 mg/kg, time 14 day"}, "[22]": {"assay": "Toxicity in BALB/c mouse transplanted with […] cells assessed as change in blood urea nitrogen level at 5 to 20 mg/kg, ip administered for 14 days by biochemical analysis", "format": "organism-based", "details": "in vivo, 336 h, dose 5-20 mg/kg, time 14 day"}, "[23]": {"assay": "Toxicity in BALB/c mouse transplanted with […] cells assessed as change in creatine kinase level at 5 to 20 mg/kg, ip administered for 14 days by biochemical analysis", "format": "organism-based", "details": "in vivo, 336 h, dose 5-20 mg/kg, time 14 day"}, "4T1 [24]": {"system": "4T1", "assay": "Antitumor activity against mouse 4T1 cells transplanted in BALB/c mouse assessed as tumor growth inhibition rate at 20 mg/kg, ip administered for 14 days relative to control", "format": "functional", "details": "4T1, 336 h, time 14 day, read-out: TGI"}}, "note": "pIC50: −log10 of the molar value. Active and inactive are the calls of the source. The calls are words filed in the database; no cut-off is given here."}
{"smiles": "O=C(/C=C/c1ccc(Cl)c([N+](=O)[O-])c1)c1nccc2c1[nH]c1ccccc12", "values": [{"measurement": "pIC50", "setting": "MDA-MB-231", "value": 6.01}, {"measurement": "pIC50", "setting": "HepG2", "value": 5.79}, {"measurement": "pIC50", "setting": "PC-3", "value": 5.93}, {"measurement": "inhibition", "setting": "MCF7 [1]", "value": "Active"}, {"measurement": "Activity", "setting": "MCF7 [2]", "value": "Active"}, {"measurement": "Activity", "setting": "MCF7 [3]", "value": "Dose-Dependent Effect"}, {"measurement": "viability at 0.1 µM", "setting": "MCF7 [4]", "value": 85.3, "unit": "%"}, {"measurement": "Activity", "setting": "MCF7 [5]", "value": 7.52, "unit": "%"}, {"measurement": "Activity", "setting": "MCF7 [6]", "value": 8.65, "unit": "%"}, {"measurement": "Activity", "setting": "MCF7 [7]", "value": "Dose-Dependent Effect"}, {"measurement": "Activity", "setting": "MCF7 [8]", "value": "Dose-Dependent Effect"}, {"measurement": "Activity", "setting": "MCF7 [9]", "value": "Dose-Dependent Effect"}, {"measurement": "inhibition", "setting": "[10]", "value": "Dose-Dependent Effect"}, {"measurement": "Activity", "setting": "MCF7 [11]", "value": "Dose-Dependent Effect"}, {"measurement": "Activity", "setting": "MCF7 [12]", "value": "Dose-Dependent Effect"}, {"measurement": "Activity", "setting": "MCF7 [13]", "value": "inactive"}, {"measurement": "TGI", "setting": "4T1 [14]", "value": "Dose-Dependent Effect"}, {"measurement": "Activity", "setting": "4T1 [15]", "value": "Active"}, {"measurement": "Activity", "setting": "4T1 [16]", "value": 43.19, "unit": "%"}, {"measurement": "Activity", "setting": "[17]", "value": "Non-Toxic"}, {"measurement": "Activity", "setting": "[18]", "value": "Non-Toxic"}, {"measurement": "Activity", "setting": "[19]", "value": "Non-Toxic"}, {"measurement": "Activity", "setting": "[20]", "value": "Non-Toxic"}, {"measurement": "Activity", "setting": "[21]", "value": "Non-Toxic"}, {"measurement": "Activity", "setting": "[22]", "value": "Non-Toxic"}, {"measurement": "Activity", "setting": "[23]", "value": "Non-Toxic"}, {"measurement": "inhibition in vivo at 20 mg/kg", "setting": "4T1 [24]", "value": 63.9, "unit": "%"}]}
